Test results taken from US10570075B2, “Compounds” (DSM IP ASSETS B.V., priority 2015, dated 2020).

Molecular target: T1, human vitamin D receptor (VDR) (Homo sapiens, UniProt P11473)
T1 construct: expressed in transfected cells; host or cells: HEK293 cells (ATCC), transient polyethylene-imine-based transfection
T1 sequence (P11473 127-423 limits assumed): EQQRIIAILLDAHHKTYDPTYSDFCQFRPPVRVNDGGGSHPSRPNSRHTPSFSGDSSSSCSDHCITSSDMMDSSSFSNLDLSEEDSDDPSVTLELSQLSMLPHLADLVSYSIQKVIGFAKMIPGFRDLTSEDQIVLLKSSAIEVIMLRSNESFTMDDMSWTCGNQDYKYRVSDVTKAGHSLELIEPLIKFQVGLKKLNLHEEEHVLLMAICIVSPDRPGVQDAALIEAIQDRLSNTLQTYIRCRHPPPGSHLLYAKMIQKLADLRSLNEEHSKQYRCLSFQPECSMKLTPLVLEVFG
Assay: Human vitamin D receptor (VDR) agonist activity, GAL4-VDR LBD luciferase transactivation assay in HEK293 cells
Format: cell-based
Conditions: transiently transfected HEK293 cells, VDR LBD-GAL4 DBD hybrid receptor, pFR-Luc luciferase reporter, 16 h incubation; read-out: Effective concentrations of half maximal activation (EC50)
Description: By way of example, the human vitamin D receptor (VDR) agonist activity of the claimed compounds can be tested using a cell based transactivation assay in an eukaryotic cell line. After a co-transfection, using a reporter plasmid construct and a hybrid receptor construct containing the ligand-binding domain of the human VDR linked to the DNA-binding domain of the yeast transcription factor GAL4, the cultured cells were stimulated by the VDR agonists. The hybrid VDR-GAL4 receptor binds the VDR agonists and transactivates luciferase reporter expression through the GAL4-response elements in the promoter of the luciferase gene (reporter construct). The VDR agonist binding and transactivation is determined by measuring the luciferase luminescence activity. The effective concentration of half maximal activation (EC50) was determined for the VDR agonists by means of dose-response experiments. The details of the protocol method of this test according to the invention are described in the example section. […]

EC50: 8 nM
SMILES: CC/C(=C\C=C\C(O)(C(F)(F)F)C(F)(F)F)c1cccc(CCc2ccc(CO)c(C(C)O)c2)c1 (racemic) [I-a, (3E,5E)-1,1,1-trifluoro-6-(3-(3-(1-hydroxyethyl)-4-(hydroxymethyl)phenethyl)phenyl)-2-(trifluoromethyl)octa-3,5-dien-2-ol]
